Data as given in ChEMBL document CHEMBL1131946, “Synthesis and evaluation of backbone/amide-modified analogs of leualacin” (Bioorg Med Chem Lett, 1999).

Experiments:
[1] = Inhibitory effect against TXB2 formation in response to arachidonic acid-induced platelet aggregation at a concentration of 100 uM; format: functional
[2] = Inhibitory effect against TXB2 formation in response to collagen-induced platelet aggregation at a concentration of 100 ug/mL; format: functional
[3] = Inhibitory effect against U-46,619-induced platelet aggregation at a concentration of 1 uM; format: functional
[4] = Inhibitory effect against arachidonic acid-induced platelet aggregation at a concentration of 100 uM; format: functional
Rattus norvegicus [5] = organism: Rattus norvegicus; test: vasodilatory effect for [Ca2+] antagonism in aortic arch isolated from WKY rats at a concentration of 100 uM; format: functional, Pharyngeal arch artery
Rattus norvegicus [6] = organism: Rattus norvegicus; test: vasodilatory effect for [Ca2+] antagonism in aortic arch isolated from WKY rats at a concentration of 10 uM; format: functional, Pharyngeal arch artery
Rattus norvegicus [7] = organism: Rattus norvegicus; test: vasodilatory effect for [Ca2+] antagonism in aortic arch isolated from WKY rats at a concentration of 1 uM; format: functional, Pharyngeal arch artery
[8] = Inhibitory effect against collagen-induced platelet aggregation at a concentration of 100 ug/mL; format: functional
Rattus norvegicus [9] = organism: Rattus norvegicus; test: vasodilatory effect for [Ca2+] antagonism in aortic arch isolated from WKY rats at a concentration of 0.01 uM; format: functional, Pharyngeal arch artery
Rattus norvegicus [10] = organism: Rattus norvegicus; test: vasodilatory effect for [Ca2+] antagonism in aortic arch isolated from WKY rats at a concentration of 0.1 uM; format: functional, Pharyngeal arch artery

IC50 [3] | IC50 [4] | IC50 [8] | Compound | Amount of TXB2 formation [1] | Amount of TXB2 formation [2] | Vasodilatory rate (Rattus norvegicus [5]) | Vasodilatory rate (Rattus norvegicus [6]) | Vasodilatory rate (Rattus norvegicus [7]) | Vasodilatory rate (Rattus norvegicus [9]) | Vasodilatory rate (Rattus norvegicus [10])
150 µM | 150 µM | 50 µM | CC(C)C[C@@H]1NC(=O)[C@@H](CC(C)C)OC(=O)CCNC(=O)[C@H](Cc2ccccc2)N(C)C(=O)[C@H](CC(C)C)OC1=O | 55.4 ng/mL | 39.4 ng/mL | 66.5% | 64.4% | 26.8% |  | 
> 200 µM | > 200 µM | > 150 µM | CC(C)C[C@@H]1NC(=O)[C@@H](CC(C)C)OC(=O)CCN(C)C(=O)[C@H](Cc2ccccc2)N(C)C(=O)[C@H](CC(C)C)OC1=O |  |  | 78% | 80.8% | 25.1% | 11.5% | 32.5%
40 µM | 30 µM | 10 µM | CC(C)C[C@@H]1NC(=O)[C@@H](CC(C)C)NC(=O)CCNC(=O)[C@H](Cc2ccccc2)N(C)C(=O)[C@H](CC(C)C)OC1=O | 30.7 ng/mL | 25.6 ng/mL |  |  | 100% | 29.3% | 35%
> 200 µM | > 200 µM | > 150 µM | CC(C)C[C@@H]1NC(=O)[C@@H](CC(C)C)NC(=O)CCN(C)C(=O)[C@H](Cc2ccccc2)N(C)C(=O)[C@H](CC(C)C)OC1=O |  |  |  |  |  |  | 
